These are literature values, as cited in patent US20130040882A1, “USE OF FIBROBLAST GROWTH FACTOR FRAGMENTS” (NOVARTIS AG, priority 2003, published 2013).

The data set has as its system somatostatin receptors. The note with it: cited from earlier work.

In the case of “cyclo[4-(NH2—C2H4—NH—CO—O)Pro-Phg-DTrp-Lys-Tyr(4-Bzl)-Phe] [SOM230]”, the “Binding to somatostatin receptors” value is on record as “binds to all somatostatin receptors except SSTR4”.
